How the values were obtained:
DOHH2 cells = assay: DOHH2 Long Term Phenotypic Assay (7 days, Cell Titer-Glo viability); assay type: cell-based; conditions: Homo sapiens, DOHH-2, 168 h, Cell Titer-Glo 2.0
How it was run: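 DOHH2 lymphoma cells (250 per well) in RPMI-1640 with 10% FBS were exposed to 1:3 serially diluted compounds for 7 days at 37 °C, 5% CO2. Viability was read by CellTiter-Glo 2.0 luminescence, and IC50 values came from four-parameter logistic fits.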

PRMT1 [1] = target: T1, PRMT1 (Homo sapiens, UniProt Q99873); assay: PRMT1 RKO Cellular Target Engagement Assay (In-Cell Western, asymmetric di-methyl arginine); assay type: cell-based; conditions: RKO cells, 48 hr compound incubation; read-out: RKO IC50 (PRMT-1 Target Engagement)
How it was run: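 RKO cells (1,000/well) received 1:3 serially diluted compound for 48 h at 37 °C, then were fixed, permeabilised and immunostained for asymmetric di-methyl arginine by In-Cell Western. The 800 nm antibody signal was normalised to CellTag 700 nm; IC50 from four-parameter logistic fit.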

PATC53 cells = assay: PATC53 Long Term Phenotypic Assay (14 days, crystal violet viability); assay type: cell-based; conditions: 336 h
How it was run: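 Cells seeded at 250 per well, allowed 24 h to settle, then treated with 1:3 serial dilutions of compound for 14 days at 37 °C, 5% CO2. Viability measured by crystal violet staining, solubilised in 10% HOAc, absorbance 590 nm; IC50 from four-parameter logistic fit.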

PRMT1 [2] = target: T1, PRMT1; assay: PRMT1 Enzymatic Assay (LANCE TR-FRET, methylation of histone H4 at Arg3); assay type: biochemical; set-up: purchased SignalChem P365-380G; conditions: PRMT1 1.5 nM, SAM 1 μM, biotinylated histone H4 (1-21) 25 nM; read-out: PRMT-1 IC50
How it was run: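 PRMT1 (1.5 nM) preincubated 15 min with compound at room temperature, then reacted 1 h with 1 μM SAM and 25 nM biotinylated histone H4 (1-21) in 50 mM Hepes pH 8, 1 mM TCEP, 0.003% Tween-20. H4R3me detected by TR-FRET (665/620 nm ratio); IC50 from four-parameter logistic fit.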

T1 sequence (Q99873 whole entry): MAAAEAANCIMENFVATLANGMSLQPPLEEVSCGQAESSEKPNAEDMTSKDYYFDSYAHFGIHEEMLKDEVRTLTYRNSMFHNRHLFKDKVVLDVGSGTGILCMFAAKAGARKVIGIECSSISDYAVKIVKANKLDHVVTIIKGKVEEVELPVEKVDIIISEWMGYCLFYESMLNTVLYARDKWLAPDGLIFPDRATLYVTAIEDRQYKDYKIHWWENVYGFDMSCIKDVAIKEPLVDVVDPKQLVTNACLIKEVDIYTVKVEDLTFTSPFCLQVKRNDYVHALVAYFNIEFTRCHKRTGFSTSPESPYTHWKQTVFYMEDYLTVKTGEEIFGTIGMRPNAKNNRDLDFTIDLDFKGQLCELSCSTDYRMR

SMILES | IC50 (PRMT1 [1]) [nM] | IC50 (PRMT1 [2]) [nM] | IC50 (DOHH2 cells) [nM] | IC50 (PATC53 cells) [nM]
COCC1(COC)CCC(c2c(CN(C)CCN)nn3c2CN(C(=O)C2(F)CC2)CC3)CC1 [Example 47, (2-(((2-aminoethyl)(methyl)-amino)methyl)-3-(4,4-bis-(methoxymethyl)cyclohexyl)-6,7-dihydropyrazolo[1,5-a]-pyrazin-5(4H)-yl)(1-fluorocyclopropyl)methanone] | 671 | 15 | 187 | 45
COCC1(COC)CCC(c2c(CN(C)CCN)nn3c2CN(C(=O)C2CCC(F)(F)CC2)CC3)CC1 [Example 50, (2-(((2-aminoethyl)(methyl)-amino)methyl)-3-(4,4-bis-(methoxymethyl)cyclohexyl)-6,7-dihydropyrazolo[1,5-a]-pyrazin-5(4H)-yl)(4,4-difluorocyclohexyl)-methanone] | 1240 | 17 | 171 | 154
CNCCN(C)Cc1nn2c(c1C1CCC(COC)(COC)CC1)CN(C(=O)C1CC(F)(F)C1)CC2 [Example 53, (3-(4,4-bis(methoxymethyl)-cyclohexyl)-2-((methyl(2-(methylamino)ethyl)amino)-methyl)-6,7-dihydropyrazolo-[1,5-a]pyrazin-5(4H)-yl)(3,3-difluorocyclobutyl)-methanone] | 1110 | 68 | 87 | 42
CNCCN(C)Cc1nn2c(c1C1CCC(COC)(COC)CC1)CN(C(=O)CC1CCC1)CC2 [Example 60, 1-(3-(4,4-bis(methoxy-methyl)cyclohexyl)-2-((methyl(2-(methylamino)-ethyl)amino)methyl)-6,7-dihydropyrazolo[1,5-a]-pyrazin-5(4H)-yl)-2-cyclobutylethan-1-one] | 345 | 54 | 82 | 33
COCC1(COC)CCC(c2c(CN(C)CCN)nn3c2CN(C(=O)C2CC(C)(C)C2)CC3)CC1 [Example 61, (2-(((2-aminoethyl)(methyl)-amino)methyl)-3-(4,4-bis-(methoxymethyl)cyclohexyl)-6,7-dihydropyrazolo[1,5-a]-pyrazin-5(4H)-yl)(3,3-dimethylcyclobutyl)-methanone] | 1950 | 23 | 224 | 68
CNCCN(C)Cc1nn2c(c1C1CCC(COC)(COC)CC1)CN(C(=O)C13CC(C)(C1)C3)CC2 [Example 63, (3-(4,4-bis(methoxymethyl)-cyclohexyl)-2-((methyl(2-(methylamino)ethyl)amino)-methyl)-6,7-dihydropyrazolo-[1,5-a]pyrazin-5(4H)-yl)(3-methylbicyclo[1.1.1]pentan-1-yl)methanone] | 610 | 44 | 67 | 16

Now from value to compound, other results behind:

IC50 (PRMT1 [1]) [nM] | IC50 (PRMT1 [2]) [nM] | SMILES | IC50 (DOHH2 cells) [nM] | IC50 (PATC53 cells) [nM]
1410 | 156 | CNCCN(C)Cc1nn2c(c1C1CCC(COC)(COC)CC1)CN(C(=O)C1CCC(OC)CC1)CC2 (stereo not drawn) [Example 48, (3-(4,4-bis(methoxymethyl)-cyclohexyl)-2-((methyl(2-(methylamino)ethyl)amino)-methyl)-6,7-dihydropyrazolo-[1,5-a]pyrazin-5(4H)-yl)(4-methoxycyclohexyl)-methanone] | 284 | 247
329 | 13 | COCC1(COC)CCC(c2c(CN(C)CCN)nn3c2CN(C(=O)C2(F)CCC2)CC3)CC1 [Example 49, (2-(((2-aminoethyl)(methyl)-amino)methyl)-3-(4,4-bis-(methoxymethyl)cyclohexyl)-6,7-dihydropyrazolo[1,5-a]-pyrazin-5(4H)-yl)(1-fluoro-cyclobutyl)methanone] | 166 | 118
372 | 65 | CNCCN(C)Cc1nn2c(c1C1CCC(COC)(COC)CC1)CN(C(=O)C1CC(OC)C1)CC2 (stereo not drawn) [Example 58, (3-(4,4-bis(methoxymethyl)-cyclohexyl)-2-((methyl(2-(methylamino)ethyl)amino)-methyl)-6,7-dihydropyrazolo-[1,5-a]pyrazin-5(4H)-yl)(3-methoxycyclobutyl)-methanone] | 131 | 131

From patent US20230416261A1, “ETHANEDIAMINE-HETEROCYCLE DERIVATIVES AS INHIBITORS OF PROTEIN ARGININE METHYLTRANSFERASES” (Board of Regents, The University of Texas System, priority 2021, published 2023)
